Where a name gives a salt, the structure may show the parent alone.
What was measured:
Assay type in all cases: in vivo
[1] = system: mouse of the Swiss type; assay: Acute toxicity per intraperitoneal route (LD50, method of Litchfield and Wilcoxon; Gleason classification); conditions: Gleason toxicity class, mouse i.p.
Description: (§1) The acute toxicity was assessed in the mouse of the Swiss type, having an average body weight of 20 g and of male sex, groups of 5 animals being used, according to the method of Litchfield and Wilcoxon (observation time: 8 days). The compounds were administered as a suspension in 1% carboxymethylcellulose.
(§2) The acute toxicity was low for all the examined compounds, as confirmed by the following table, in which those of the vincamine HCl and of the apovincamine are also reported.
(§3) In fact, for all the compounds, the toxicity, when evaluated according to the method of Gleason, can be classified as light, modest or negligible.

[2] = as above; conditions: in vivo, ip; Swiss male mouse, suspension in 1% carboxymethylcellulose, observation 8 days
Description: as §1, §2, §3

[3] = system: vertebral arteria; assay: Variation of the hematic flow at the vertebral arteria after i.v. administration (cerebral vasodilating activity); conditions: anestetized dog, i.v. (femoral vein) 5 mg/kg, left vertebral arteria, electromagnetic flowmeters
From the text: The cerebral vasodilating activity was studied in the anestetized dog, by measuring, by means of Statham periarterial electromagnetic flowmeters, the hematic flow at the level of the vertebral arteria which, in such animal species, constitutes the greatest blood supply to the brain.
The results are reported in the TABLE as the percent variations of the flow measured at the level of the left vertebral arteria after the administration of the several compounds to be tested to groups of 4 animals for each compound. The results also confirm that the compounds of the invention are all endowed with a vasodilating activity at the level of the cerebral circulus. Such an action for some compounds is more relevant with respect to that of vincamine and of apovincamine.

[4] = Absorption: hematic levels at different times from the oral administration; conditions: blood, 100 mg/kg expressed as vincamine and apovincamine, suspension in 5% carboxymethyl cellulose, chromatographic method, read-out: max. conc. time (converted)
Description: All the compounds have been orally administered at the dosage of 100 mg/kg, expressed as vincamine and apovincamine, in form of a suspension in a 5% carboxymethyl cellulose solution.
The absorption was determined by evaluating the hematic levels at the following times (minutes): 0, 30, 120, 240, 480, 10 hours and 12 hours, at which it was possible to assess the time, from the administration, of the maximum hematic concentration.
The vincamine and apovincamine concentrations were assessed by chromatographic method.
For the evaluation of the prolonged action the following criterium was adopted; as derivatives having a long-acting effect, there are considered those which, 120 minutes after the administration, show hematic levels higher than those obtained with vincamine and apovincamine.

Structure (SMILES) | Tox (Gleason) [1] | LD50 at 192 h [2] [mg/kg] | Percent variations of the hematic flow at the vertebral arteria [3] | Tmax [4] [min]
CC[C@]12CCCN3CC(=O)c4c(n(c5ccccc45)C(O)(CO)C1)[C@@H]32 (some centres unmarked) [6-ketovincaminol] | light | 1500 | +30.2% | –
CC[C@]12CCCN3CC(=O)c4c(n(c5ccccc45)[C@](O)(C(=O)OC)C1)[C@@H]32 [6-keto-16-epivincamine] | negligible | > 2000 | +35.7% | –
CC[C@]12CCCN3CC(=O)c4c(n(c5ccccc45)C(=O)C1)[C@@H]32 [6-ketovincamone] | – | > 2000 | +30.2% | –
CC[C@]12CCCN3CCc4c(n(c5ccccc45)[C@@](O)(C(=O)OC)C1)[C@@H]32 [Vincamine HCl, reference compound] | modest | 800 | +24.1% | 20
CC[C@@]12C=C(C(=O)OC)n3c4c(c5ccccc53)CCN(CCC1)[C@H]42 [Apovincamine, reference compound] | negligible | > 2000 | +25.6% | 60
CC[C@]12CCCN3CC(=O)c4c(n(c5ccccc45)[C@@](O)(C(=O)OC)C1)[C@@H]32 [6-ketovincamine] | – | > 2000 | +28.4% | –
CC[C@@]12C=C(C(=O)OC)n3c4c(c5ccccc53)C(=O)CN(CCC1)[C@H]42 [6-ketoapovincamine] | – | > 2000 | +29.2% | –
CC[C@]12CCCN3CC(O)c4c(n(c5ccccc45)C(O)(C(=O)OC)C1)[C@@H]32 (some centres unmarked) [6-hydroxyvincamine] | modest | 900 | +33.4% | –
